Key:
Test in all cases: biochemical
Set-up in all cases: KinomeScan competition binding panel (DiscoveRx), percent of control at 1 uM
Settings in all cases: read-out: Percent Control
DLK = molecular target: T1, DLK (Homo sapiens, UniProt Q12852)
T1 construct: gene MAP3K12
Procedure, shortened: (§1)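 Selectivity profiled across 456 kinases/mutants by KinomeScan binding technology.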

RIPK1 = RIPK1 (Homo sapiens, UniProt Q13546)
Procedure, shortened: as §1

MEK6 = molecular target: T2, MEK6 (Homo sapiens, UniProt P52564)
T2 construct: gene MAP2K6
Procedure, shortened: as §1

BRSK1 = BRSK1 (Homo sapiens, UniProt Q8TDC3)
Procedure, shortened: as §1

PAK2 = PAK2 (Homo sapiens, UniProt Q13177)
Procedure, shortened: as §1

EPHA5 = EPHA5 (Homo sapiens, UniProt P54756)
Procedure, shortened: as §1

KIT-autoinhibited = KIT-autoinhibited (Homo sapiens, UniProt P10721)
Procedure, shortened: as §1

BTK = BTK (Homo sapiens, UniProt Q06187)
Procedure, shortened: as §1

MAP3K15 = MAP3K15 (Homo sapiens, UniProt Q6ZN16)
Procedure, shortened: as §1

PIK3CA(I800L) = PIK3CA(I800L) (Homo sapiens, UniProt P42336, I800L)
Procedure, shortened: as §1

EGFR(G719C) = EGFR(G719C) (Homo sapiens, UniProt P00533, G719C)
Procedure, shortened: as §1

IKK-beta = molecular target: T3, IKK-beta (Homo sapiens, UniProt O14920)
T3 construct: gene IKBKB
Procedure, shortened: as §1

CSK = CSK (Homo sapiens, UniProt P41240)
Procedure, shortened: as §1

AMPK-alpha1 = molecular target: T4, AMPK-alpha1 (Homo sapiens, UniProt Q13131)
T4 construct: gene PRKAA1
Procedure, shortened: as §1

CAMK1G = CAMK1G (Homo sapiens, UniProt Q96NX5)
Procedure, shortened: as §1

ASK1 = molecular target: T5, ASK1 (Homo sapiens, UniProt Q99683)
T5 construct: gene MAP3K5
Procedure, shortened: as §1

CSNK1A1L = CSNK1A1L (Homo sapiens, UniProt Q8N752)
Procedure, shortened: as §1

ROS1 = ROS1 (Homo sapiens, UniProt P08922)
Procedure, shortened: as §1

HASPIN = HASPIN (Homo sapiens, UniProt Q8TF76)
Procedure, shortened: as §1

p38-delta = molecular target: T6, p38-delta (Homo sapiens, UniProt O15264)
T6 construct: gene MAPK13
Procedure, shortened: as §1

NIM1 = molecular target: T7, NIM1 (Homo sapiens, UniProt Q8IY84)
T7 construct: gene NIM1K
Procedure, shortened: as §1

CAMK4 = CAMK4 (Homo sapiens, UniProt Q16566)
Procedure, shortened: as §1

PRKD3 = PRKD3 (Homo sapiens, UniProt O94806)
Procedure, shortened: as §1

RIOK3 = RIOK3 (Homo sapiens, UniProt O14730)
Procedure, shortened: as §1

AAK1 = AAK1 (Homo sapiens, UniProt Q2M2I8)
Procedure, shortened: as §1

PAK2, sequence (Q13177 whole entry): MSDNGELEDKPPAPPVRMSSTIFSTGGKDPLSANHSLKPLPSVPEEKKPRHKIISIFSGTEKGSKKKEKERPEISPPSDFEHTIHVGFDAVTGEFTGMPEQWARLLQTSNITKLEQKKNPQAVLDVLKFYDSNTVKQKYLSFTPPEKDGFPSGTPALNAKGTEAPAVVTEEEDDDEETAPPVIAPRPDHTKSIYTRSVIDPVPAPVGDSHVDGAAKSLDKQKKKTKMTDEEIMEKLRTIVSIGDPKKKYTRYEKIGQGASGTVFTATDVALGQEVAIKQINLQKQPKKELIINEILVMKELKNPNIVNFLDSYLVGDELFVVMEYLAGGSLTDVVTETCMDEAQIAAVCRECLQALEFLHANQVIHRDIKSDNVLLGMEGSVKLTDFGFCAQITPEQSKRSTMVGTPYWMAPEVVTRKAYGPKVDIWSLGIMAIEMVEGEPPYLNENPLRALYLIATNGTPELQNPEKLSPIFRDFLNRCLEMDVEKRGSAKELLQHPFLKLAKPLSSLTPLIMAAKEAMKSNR
T2 sequence (P52564 whole entry): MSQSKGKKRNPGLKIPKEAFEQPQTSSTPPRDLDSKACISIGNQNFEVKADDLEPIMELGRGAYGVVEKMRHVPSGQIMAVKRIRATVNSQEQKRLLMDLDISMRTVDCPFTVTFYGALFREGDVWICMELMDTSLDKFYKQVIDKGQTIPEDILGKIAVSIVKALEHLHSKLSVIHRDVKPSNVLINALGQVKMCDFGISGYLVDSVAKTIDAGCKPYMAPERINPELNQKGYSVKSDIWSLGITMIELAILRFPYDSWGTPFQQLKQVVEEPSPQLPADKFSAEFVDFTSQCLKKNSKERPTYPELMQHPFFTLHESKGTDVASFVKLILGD
T1 sequence (Q12852 whole entry): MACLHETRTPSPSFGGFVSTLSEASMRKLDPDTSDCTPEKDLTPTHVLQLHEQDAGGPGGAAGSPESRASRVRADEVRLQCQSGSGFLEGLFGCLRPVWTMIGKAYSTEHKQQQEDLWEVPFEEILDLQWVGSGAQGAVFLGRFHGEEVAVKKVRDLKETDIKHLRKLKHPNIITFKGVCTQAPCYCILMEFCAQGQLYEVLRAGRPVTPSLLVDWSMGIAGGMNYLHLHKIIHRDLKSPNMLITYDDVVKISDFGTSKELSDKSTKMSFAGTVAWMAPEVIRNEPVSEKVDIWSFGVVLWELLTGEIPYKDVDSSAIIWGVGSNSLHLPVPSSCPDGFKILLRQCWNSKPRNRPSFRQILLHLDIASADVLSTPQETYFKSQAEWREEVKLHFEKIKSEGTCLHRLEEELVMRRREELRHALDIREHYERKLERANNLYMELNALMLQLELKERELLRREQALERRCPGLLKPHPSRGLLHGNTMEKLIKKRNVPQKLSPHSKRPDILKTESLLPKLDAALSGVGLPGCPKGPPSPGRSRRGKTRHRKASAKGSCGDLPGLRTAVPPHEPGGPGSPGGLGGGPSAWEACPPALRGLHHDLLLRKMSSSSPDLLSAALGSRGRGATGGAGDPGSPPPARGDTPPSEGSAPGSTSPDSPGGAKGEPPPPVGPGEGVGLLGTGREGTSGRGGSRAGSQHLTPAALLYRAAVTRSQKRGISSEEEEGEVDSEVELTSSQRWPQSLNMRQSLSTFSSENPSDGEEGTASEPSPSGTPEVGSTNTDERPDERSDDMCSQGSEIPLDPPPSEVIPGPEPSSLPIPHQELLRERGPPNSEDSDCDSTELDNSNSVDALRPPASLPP
BTK, sequence (Q06187 whole entry): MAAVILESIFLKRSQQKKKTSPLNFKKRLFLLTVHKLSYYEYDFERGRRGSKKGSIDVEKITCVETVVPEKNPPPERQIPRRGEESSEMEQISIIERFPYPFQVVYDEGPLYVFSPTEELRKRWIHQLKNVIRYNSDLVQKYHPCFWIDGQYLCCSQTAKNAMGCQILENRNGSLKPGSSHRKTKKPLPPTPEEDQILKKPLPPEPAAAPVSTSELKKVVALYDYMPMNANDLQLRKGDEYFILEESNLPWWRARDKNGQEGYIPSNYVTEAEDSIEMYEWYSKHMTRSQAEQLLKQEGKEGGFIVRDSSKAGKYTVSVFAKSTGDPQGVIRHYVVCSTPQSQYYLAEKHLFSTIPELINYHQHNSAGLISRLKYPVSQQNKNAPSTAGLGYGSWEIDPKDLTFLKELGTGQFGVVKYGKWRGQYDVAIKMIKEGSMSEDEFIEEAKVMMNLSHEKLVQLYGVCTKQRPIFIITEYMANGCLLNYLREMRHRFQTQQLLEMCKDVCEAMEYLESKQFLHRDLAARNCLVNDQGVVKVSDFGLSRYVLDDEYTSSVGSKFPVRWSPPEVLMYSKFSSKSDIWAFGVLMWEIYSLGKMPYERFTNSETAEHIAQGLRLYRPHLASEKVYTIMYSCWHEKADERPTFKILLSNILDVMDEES
CAMK1G, sequence (Q96NX5 whole entry): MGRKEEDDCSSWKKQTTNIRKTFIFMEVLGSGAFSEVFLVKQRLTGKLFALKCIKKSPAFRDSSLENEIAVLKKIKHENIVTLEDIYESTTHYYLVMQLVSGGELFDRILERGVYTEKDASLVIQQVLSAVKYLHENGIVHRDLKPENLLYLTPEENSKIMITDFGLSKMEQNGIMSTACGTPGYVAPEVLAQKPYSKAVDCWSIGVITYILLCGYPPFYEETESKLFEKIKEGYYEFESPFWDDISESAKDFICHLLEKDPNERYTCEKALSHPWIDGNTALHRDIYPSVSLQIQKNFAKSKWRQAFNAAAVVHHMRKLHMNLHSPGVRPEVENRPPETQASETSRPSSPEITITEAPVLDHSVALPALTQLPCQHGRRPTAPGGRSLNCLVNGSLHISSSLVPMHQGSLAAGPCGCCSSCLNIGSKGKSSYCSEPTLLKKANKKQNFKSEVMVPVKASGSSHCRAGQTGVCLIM
EGFR(G719C), sequence (P00533 whole entry G719C): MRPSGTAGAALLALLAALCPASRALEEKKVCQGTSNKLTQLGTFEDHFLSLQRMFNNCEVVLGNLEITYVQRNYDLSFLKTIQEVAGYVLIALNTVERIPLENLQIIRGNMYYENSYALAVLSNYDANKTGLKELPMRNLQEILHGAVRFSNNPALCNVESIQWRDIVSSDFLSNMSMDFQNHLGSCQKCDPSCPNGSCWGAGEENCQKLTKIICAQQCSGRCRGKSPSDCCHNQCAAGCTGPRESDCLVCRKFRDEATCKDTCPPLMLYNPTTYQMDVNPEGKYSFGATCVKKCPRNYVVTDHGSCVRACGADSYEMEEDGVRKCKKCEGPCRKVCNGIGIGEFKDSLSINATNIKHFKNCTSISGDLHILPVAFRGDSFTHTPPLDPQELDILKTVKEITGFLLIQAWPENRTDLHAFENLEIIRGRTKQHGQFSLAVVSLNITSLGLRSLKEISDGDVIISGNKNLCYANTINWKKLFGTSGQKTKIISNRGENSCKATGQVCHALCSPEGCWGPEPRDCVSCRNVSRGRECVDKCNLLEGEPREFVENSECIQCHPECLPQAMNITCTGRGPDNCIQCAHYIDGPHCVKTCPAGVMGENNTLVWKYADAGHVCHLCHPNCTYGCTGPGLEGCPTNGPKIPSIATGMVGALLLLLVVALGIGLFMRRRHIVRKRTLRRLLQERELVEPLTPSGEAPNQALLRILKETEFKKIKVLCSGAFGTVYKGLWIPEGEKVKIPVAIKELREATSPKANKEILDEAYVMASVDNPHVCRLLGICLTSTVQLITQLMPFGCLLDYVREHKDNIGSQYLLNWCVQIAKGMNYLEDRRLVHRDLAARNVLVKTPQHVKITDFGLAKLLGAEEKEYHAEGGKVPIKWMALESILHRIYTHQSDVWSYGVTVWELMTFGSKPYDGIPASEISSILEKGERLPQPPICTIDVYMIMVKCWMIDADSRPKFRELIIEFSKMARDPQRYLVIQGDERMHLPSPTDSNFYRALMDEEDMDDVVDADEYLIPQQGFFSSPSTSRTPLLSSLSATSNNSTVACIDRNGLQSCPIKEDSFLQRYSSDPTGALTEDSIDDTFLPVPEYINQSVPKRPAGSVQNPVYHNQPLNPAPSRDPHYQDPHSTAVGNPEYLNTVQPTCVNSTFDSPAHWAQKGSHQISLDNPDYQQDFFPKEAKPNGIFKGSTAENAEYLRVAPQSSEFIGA
PRKD3, sequence (O94806 whole entry): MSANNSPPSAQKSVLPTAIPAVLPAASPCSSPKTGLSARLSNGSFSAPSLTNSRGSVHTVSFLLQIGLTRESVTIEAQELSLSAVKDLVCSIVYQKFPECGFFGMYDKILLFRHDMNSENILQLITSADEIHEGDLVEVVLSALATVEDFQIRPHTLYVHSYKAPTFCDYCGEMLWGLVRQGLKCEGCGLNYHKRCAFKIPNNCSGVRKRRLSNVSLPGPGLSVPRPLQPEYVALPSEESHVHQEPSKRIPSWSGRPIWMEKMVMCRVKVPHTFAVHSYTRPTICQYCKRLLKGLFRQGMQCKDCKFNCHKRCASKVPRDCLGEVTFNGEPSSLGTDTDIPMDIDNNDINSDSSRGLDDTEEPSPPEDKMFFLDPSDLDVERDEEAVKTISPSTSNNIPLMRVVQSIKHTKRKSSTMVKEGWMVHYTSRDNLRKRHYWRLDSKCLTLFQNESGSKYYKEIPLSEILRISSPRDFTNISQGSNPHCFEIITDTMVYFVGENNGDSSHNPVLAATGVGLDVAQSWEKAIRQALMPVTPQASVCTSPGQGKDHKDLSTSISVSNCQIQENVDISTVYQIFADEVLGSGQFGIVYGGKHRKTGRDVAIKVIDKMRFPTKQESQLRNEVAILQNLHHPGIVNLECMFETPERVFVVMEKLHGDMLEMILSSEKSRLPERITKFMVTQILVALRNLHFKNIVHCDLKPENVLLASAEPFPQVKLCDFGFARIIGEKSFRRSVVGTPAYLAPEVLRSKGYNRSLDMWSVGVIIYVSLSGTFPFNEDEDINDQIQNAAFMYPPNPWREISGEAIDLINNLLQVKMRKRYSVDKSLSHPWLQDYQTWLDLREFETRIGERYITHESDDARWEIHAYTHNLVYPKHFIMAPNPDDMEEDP

With C=CC(=O)Nc1cc(-n2c(=O)ccc3cnc4ccc(-n5cccn5)cc4c32)ccc1C [CHMFL-BTK-11] as the compound, how does the remaining binding at 1 µM (DLK) read?
Its remaining binding at 1 µM is 100%.

And the remaining binding at 1 µM (RIPK1)?
Its remaining binding at 1 µM is 90%.

What about the remaining binding at 1 µM (MEK6) of the same compound?
Its remaining binding at 1 µM is 79%.

What about the remaining binding at 1 µM (BRSK1) of the same compound?
Its remaining binding at 1 µM is 100%.

What about the remaining binding at 1 µM (PAK2) of the same compound?
Its remaining binding at 1 µM is 99%.

What about the remaining binding at 1 µM (EPHA5) of the same compound?
Its remaining binding at 1 µM is 100%.

What about the remaining binding at 1 µM (KIT-autoinhibited) of the same compound?
The remaining binding at 1 µM was 83%.

And the remaining binding at 1 µM (BTK)?
The remaining binding at 1 µM was 8.2%.

What about the remaining binding at 1 µM (MAP3K15) of the same compound?
Its remaining binding at 1 µM is 80%.

What about the remaining binding at 1 µM (PIK3CA(I800L)) of the same compound?
The remaining binding at 1 µM was 62%.

And the remaining binding at 1 µM (EGFR(G719C))?
The remaining binding at 1 µM was 97%.

And the remaining binding at 1 µM (IKK-beta)?
Its remaining binding at 1 µM is 86%.

And the remaining binding at 1 µM (CSK)?
Its remaining binding at 1 µM is 100%.

And the remaining binding at 1 µM (AMPK-alpha1)?
The remaining binding at 1 µM was 100%.

What about the remaining binding at 1 µM (CAMK1G) of the same compound?
The remaining binding at 1 µM was 84%.

What about the remaining binding at 1 µM (ASK1) of the same compound?
The remaining binding at 1 µM was 90%.

What about the remaining binding at 1 µM (CSNK1A1L) of the same compound?
The remaining binding at 1 µM was 100%.

What about the remaining binding at 1 µM (ROS1) of the same compound?
The remaining binding at 1 µM was 94%.

And the remaining binding at 1 µM (HASPIN)?
Its remaining binding at 1 µM is 59%.

What about the remaining binding at 1 µM (p38-delta) of the same compound?
The remaining binding at 1 µM was 96%.

And the remaining binding at 1 µM (NIM1)?
The remaining binding at 1 µM was 100%.

What about the remaining binding at 1 µM (CAMK4) of the same compound?
The remaining binding at 1 µM was 91%.

What about the remaining binding at 1 µM (PRKD3) of the same compound?
Its remaining binding at 1 µM is 100%.

What about the remaining binding at 1 µM (RIOK3) of the same compound?
The remaining binding at 1 µM was 80%.

And the remaining binding at 1 µM (AAK1)?
Its remaining binding at 1 µM is 62%.
